Laboratory results published in patent US20080234188A1, “Antimicrobial Peptides” (The Hospital for Sick Children, priority 2001, published 2008).
Values after ≈ are worked out from the molar mass of the structure shown. Where a SMILES comes first, the peptide text is derived from it. [ ]: non-standard residue; d: D form.

How the values were obtained:
P. aeruginosa ATCC27853 = format: cell-based, Pseudomonas aeruginosa
Description: (§1) The bacterial strains used were E. coli C498, E. coli C500, Escherichia coli UB1005 and its antibiotic supersusceptible derivative DC2 (22); a clinical isolate of Staphylococcus epidermidis (C621); coryneform bacterial strain Corynebacterium xerosis (C875); and E. coli ATCC 25922, Staphylococcus aureus ATCC 25923, Enterococcus faecalis ATCC 29212, Bacillus subtilis ATCC 6633 and Pseudomonas aeruginosa ATCC 27853, all from American Type Culture Collection.
(§2) Peptide antibacterial activity was assessed by the method of R. Hancock et al. (Wu & Hancock (1999), J. Biol. Chem., v. 274, pp. 29-35). Test strains of bacteria from Mueller Hinton agar (MHA) plates were inoculated into 5 ml Mueller Hinton Broth (MHB) in tubes and grown overnight at 37° C. on a shaker (180 rpm). Serial dilutions of test peptides (at 10 times the required test concentrations) were made in 0.01% acetic acid, 0.2% BSA, in polypropylene or coated glass tubes as follows: the test peptide was (a) dissolved in distilled water at 20 times the required maximum concentration (enough final volume for all tests to be performed on a given day); (b) diluted into an equal volume of 0.02% acetic acid, 0.4% BSA to give 10 times the required maximum concentration; (c) serial doubling dilutions were performed in 0.01% acetic acid, 0.2% BSA to provide serial dilutions of peptides at 10 times the required test concentrations, e.g., 640, 320, 160, . . . 2.5 μg/ml. (No deleterious effects of long-term storage of peptides in these media have been detected). Overnight bacterial cultures were diluted in MHB to give 2−7×10^5 colony forming units/ml. Bacterial suspension (100 μl) was dispensed in each well; controls without bacteria were maintained in parallel. To each well was added 11 μl of 10× test peptide and plates were incubated at 37° C. for 18-24 hours, and checked again at 40-48 hours. Plates were read visually and at 600 nm in a microplate reader (Molecular Devices).
(§3) A further number of the peptides of the invention were tested for antimicrobial activity against a range of Gram-positive and Gram-negative bacteria by the assay described immediately before Example 1.

E. coli ATCC25922 = format: cell-based
Description: as §1, §2, §3

B. subtilis ATCC6633 = format: cell-based, Bacillus subtilis
Description: as §1, §2, §3

[1] = test system: Staphylococcus epidermidis (C621); format: cell-based; details: C621
Outline: (§4)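 Broth microdilution in Mueller Hinton Broth, inoculum 2−7×10^5 CFU/ml. Peptides serially doubled in 0.01% acetic acid, 0.2% BSA and added at 10× final concentration. Incubation 37° C for 18-24 h, rechecked at 40-48 h; growth read visually and at 600 nm.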

E. coli UB1005 = format: cell-based, Escherichia coli; details: UB1005
Outline: (§5)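 Growth is scored visually and by absorbance at 600 nm after 18-24 h at 37° C, with a second check at 40-48 h. Bacteria are seeded at 2−7×10^5 CFU/ml in Mueller Hinton broth against twofold peptide dilutions made up in 0.01% acetic acid, 0.2% BSA.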

Human RBC = format: cell-based
Description: (§6) Erythrocytes from heparinized rabbit or human blood were washed three times with phosphate-buffered saline (PBS; 5 mM phosphate buffer, 0.14 M saline, pH 7.3), and centrifuged at 1000×g for 15 min at 4° C. The erythrocytes were diluted with PBS to 4% (v/v). Dilutions of the peptides in PBS were plated in 100 μl volumes in microtitre plates (Costar 3790, polypropylene) together with 100μl of the erythrocyte suspension. PBS was used as control and 100% lysis was determined in 0.1% Triton X-100. The plates were incubated at 37° C. for 1 h and then centrifuged at 1000×g for 5 min. 100 μl aliquots of the supernatant were transferred to microtitre plates (Nunc, polystyrene), and the release of hemoglobin was monitored by measurement of the absorbance at 540 nm in a microplate reader. The results are shown in Table 6, for peptide concentrations of […]. With only one or two exceptions, little or no hemolysis was seen.

Rabbit RBC = format: cell-based
Description: as §6

E. faecalis ATCC29212 = format: cell-based, Enterococcus faecalis
Description: as §1, §2, §3

S. aureus ATCC25923 = format: cell-based, Staphylococcus aureus
Description: as §1, §2, §3

[2] = test system: Corynebacterium xerosis (C875); format: cell-based
Outline: as §4

E. coli DC2 = assay: Assay of antibacterial activity (MIC), E. coli DC2; format: cell-based, Escherichia coli; details: Table 5A
Outline: as §5

Row | Structure (SMILES) | MIC B. subtilis ATCC6633 (B. subtilis ATCC6633) [µM] | Rabbit RBC (% lysis) 50 μM (Rabbit RBC) [% lysis] | Rabbit RBC (% lysis) 200 μM (Rabbit RBC) [% lysis] | MIC E. faecalis ATCC29212 (E. faecalis ATCC29212) [µM] | MIC S. aureus ATCC25923 (S. aureus ATCC25923) [µM] | MIC P. aeruginosa ATCC27853 (P. aeruginosa ATCC27853) [µM] | MIC E. coli ATCC25922 (E. coli ATCC25922) [µM] | MIC S. epidermidis C621 [1] [µM] | MIC E. coli UB1005 (E. coli UB1005) [µM] | Human RBC (% lysis) 50 μM (Human RBC) [% lysis] | Human RBC (% lysis) 200 μM (Human RBC) [% lysis] | MIC C. xerosis C875 [2] [µM] | MIC E. coli DC2 (E. coli DC2) [µM]
1 | C[C@H](NC(=O)[C@H](C)NC(=O)[C@H](C)NC(=O)[C@H](Cc1c[nH]c2ccccc12)NC(=O)[C@H](Cc1ccccc1)NC(=O)[C@H](C)NC(=O)[C@H](C)NC(=O)[C@H](C)NC(=O)[C@H](C)NC(=O)[C@H](CCCCN)NC(=O)[C@H](CCCCN)NC(=O)[C@H](CCCCN)NC(=O)[C@H](CCCCN)NC(=O)[C@H](CCCCN)NC(=O)[C@@H](N)CCCCN)C(=O)N[C@@H](C)C(=O)N[C@@H](Cc1ccccc1)C(N)=O [KAFW, KKKKKKAAAAFWAAAAF-NH2] (H-KKKKKKAAAAFWAAAAF-NH2; N-terminus assumed) | – | 0 | 1 | – | – | 16 (≈ 29.4 µg/mL) | 16 (≈ 29.4 µg/mL) | 8 (≈ 14.7 µg/mL) | 2 (≈ 3.67 µg/mL) | 0 | 0 | 0.5 (≈ 0.918 µg/mL) | 0.5 (≈ 0.918 µg/mL)
2 | C[C@H](NC(=O)[C@H](C)NC(=O)[C@H](Cc1ccccc1)NC(=O)[C@H](C)NC(=O)[C@H](C)NC(=O)[C@H](Cc1c[nH]c2ccccc12)NC(=O)[C@H](C)NC(=O)[C@H](C)NC(=O)[C@H](Cc1ccccc1)NC(=O)[C@H](C)NC(=O)[C@H](C)NC(=O)[C@H](CCCNC(=N)N)NC(=O)[C@H](CCCNC(=N)N)NC(=O)[C@H](CCCNC(=N)N)NC(=O)[C@H](CCCNC(=N)N)NC(=O)[C@H](CCCNC(=N)N)NC(=O)[C@@H](N)CCCNC(=N)N)C(N)=O [Peptide F17-6R, RRRRRRAAFAAWAAFAA-NH2] (H-RRRRRRAAFAAWAAFAA-NH2; N-terminus assumed) | – | 1 | 3 | – | – | 8 (≈ 16 µg/mL) | 4 (≈ 8.01 µg/mL) | 4 (≈ 8.01 µg/mL) | 1 (≈ 2 µg/mL) | 14 | 26 | 0.5 (≈ 1 µg/mL) | 0.5 (≈ 1 µg/mL)
3 | C[C@H](NC(=O)[C@H](C)NC(=O)[C@H](C)NC(=O)[C@H](Cc1ccccc1)NC(=O)[C@H](C)NC(=O)[C@H](C)NC(=O)[C@H](Cc1c[nH]c2ccccc12)NC(=O)[C@H](C)NC(=O)[C@H](C)NC(=O)[C@H](Cc1ccccc1)NC(=O)[C@H](C)NC(=O)[C@H](C)NC(=O)[C@H](C)NC(=O)[C@H](C)NC(=O)[C@H](C)NC(=O)[C@H](Cc1ccccc1)NC(=O)[C@H](C)NC(=O)[C@H](C)NC(=O)[C@H](C)NC(=O)[C@H](CCCCN)NC(=O)[C@H](CCCCN)NC(=O)[C@H](CCCCN)NC(=O)[C@H](CCCCN)NC(=O)[C@H](CCCCN)NC(=O)[C@@H](N)CCCCN)C(N)=O [Peptide F25-6K] (H-KKKKKKAAAFAAAAAFAAWAAFAAA-NH2; N-terminus assumed) | – | – | – | – | – | 32 (≈ 79.4 µg/mL) | 16 (≈ 39.7 µg/mL) | 4 (≈ 9.92 µg/mL) | 16 (≈ 39.7 µg/mL) | 11 | 17 | 1 (≈ 2.48 µg/mL) | 8 (≈ 19.8 µg/mL)
4 | C[C@H](NC(=O)[C@H](C)NC(=O)[C@H](Cc1c[nH]c2ccccc12)NC(=O)[C@H](C)NC(=O)[C@H](C)NC(=O)[C@H](Cc1c[nH]c2ccccc12)NC(=O)[C@H](C)NC(=O)[C@H](C)NC(=O)[C@H](Cc1c[nH]c2ccccc12)NC(=O)[C@H](C)NC(=O)[C@H](C)NC(=O)[C@H](CCCCN)NC(=O)[C@H](CCCCN)NC(=O)[C@H](CCCCN)NC(=O)[C@H](CCCCN)NC(=O)[C@H](CCCCN)NC(=O)[C@@H](N)CCCCN)C(N)=O [Peptide W17-6K, KKKKKKAAWAAWAAWAA-NH2] (H-KKKKKKAAWAAWAAWAA-NH2; N-terminus assumed) | 4 (≈ 7.65 µg/mL) | 0 | 2 | >32 | 32 (≈ 61.2 µg/mL) | 8 (≈ 15.3 µg/mL) | 8 (≈ 15.3 µg/mL) | 8 (≈ 15.3 µg/mL) | 1 (≈ 1.91 µg/mL) | 0 | 0 | – | –

Second part, led by results:

Row | MIC B. subtilis ATCC6633 (B. subtilis ATCC6633) [µM] | Rabbit RBC (% lysis) 50 μM (Rabbit RBC) [% lysis] | Rabbit RBC (% lysis) 200 μM (Rabbit RBC) [% lysis] | MIC E. faecalis ATCC29212 (E. faecalis ATCC29212) [µM] | MIC S. aureus ATCC25923 (S. aureus ATCC25923) [µM] | Structure (SMILES) | MIC P. aeruginosa ATCC27853 (P. aeruginosa ATCC27853) [µM] | MIC E. coli ATCC25922 (E. coli ATCC25922) [µM] | MIC S. epidermidis C621 [1] [µM] | MIC E. coli UB1005 (E. coli UB1005) [µM] | Human RBC (% lysis) 50 μM (Human RBC) [% lysis] | Human RBC (% lysis) 200 μM (Human RBC) [% lysis] | MIC C. xerosis C875 [2] [µM] | MIC E. coli DC2 (E. coli DC2) [µM]
5 | 4 (≈ 7.34 µg/mL) | 0 | 2 | >32 | 32 (≈ 58.7 µg/mL) | C[C@@H](NC(=O)[C@@H](C)NC(=O)[C@@H](Cc1ccccc1)NC(=O)[C@@H](C)NC(=O)[C@@H](C)NC(=O)[C@@H](Cc1c[nH]c2ccccc12)NC(=O)[C@@H](C)NC(=O)[C@@H](C)NC(=O)[C@@H](Cc1ccccc1)NC(=O)[C@@H](C)NC(=O)[C@@H](C)NC(=O)[C@@H](CCCCN)NC(=O)[C@@H](CCCCN)NC(=O)[C@@H](CCCCN)NC(=O)[C@@H](CCCCN)NC(=O)[C@@H](CCCCN)NC(=O)[C@H](N)CCCCN)C(N)=O [A11-D F17-6K, kkkkkkaafaawaafaa-NH2] (H-[dK][dK][dK][dK][dK][dK][dA][dA][dF][dA][dA][dW][dA][dA][dF][dA][dA]-NH2) | 8 (≈ 14.7 µg/mL) | 2 (≈ 3.67 µg/mL) | 4 (≈ 7.34 µg/mL) | 0.5 (≈ 0.918 µg/mL) | 0 | 0 | – | –
6 | 16 (≈ 28.7 µg/mL) | 0 | 2 | >32 | >32 | C[C@H](NC(=O)[C@H](C)NC(=O)[C@H](Cc1ccccc1)NC(=O)[C@H](C)NC(=O)[C@H](C)NC(=O)[C@H](Cc1ccccc1)NC(=O)[C@H](C)NC(=O)[C@H](C)NC(=O)[C@H](Cc1ccccc1)NC(=O)[C@H](C)NC(=O)[C@H](C)NC(=O)[C@H](CCCCN)NC(=O)[C@H](CCCCN)NC(=O)[C@H](CCCCN)NC(=O)[C@H](CCCCN)NC(=O)[C@H](CCCCN)NC(=O)[C@@H](N)CCCCN)C(N)=O [Peptide 3F17-6K, KKKKKKAAFAAFAAFAA-NH2] (H-KKKKKKAAFAAFAAFAA-NH2; N-terminus assumed) | 16 (≈ 28.7 µg/mL) | 16 (≈ 28.7 µg/mL) | 8 (≈ 14.4 µg/mL) | 2 (≈ 3.59 µg/mL) | 0 | 0 | – | –
